One assay concerns the target CDK2/cyclin A (Homo sapiens, UniProt P24941). The assay can be described thus: Kinase assay, radioactive phosphate incorporation, CDK2/cyclin A. In kind it is biochemical. The settings on record: 100 μM ATP, 30° C.; read-out: Kinase inhibition IC50 CDK2/cyclin A. The procedure, abridged: (§1)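 Steps: enzyme (2-4 μg) plus substrate in pH 7.4 buffer with DTT and vanadate; start with 100 μM ATP/15 mM MgCl2 containing [γ-32P]-ATP; incubate at 30° C; stop on ice; filter, wash with 75 mM orthophosphoric acid; scintillation count. Compounds diluted from DMSO stocks into 10% DMSO buffer.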

In another assay the target is CDK2/cyclin E (Homo sapiens, UniProt P24941). The assay can be described thus: Kinase assay, radioactive phosphate incorporation, CDK2/cyclin E. Type of assay: biochemical. The conditions noted are these: 100 μM ATP, 30° C.; read-out: Kinase inhibition IC50 CDK2/cyclin E. Summed up:
as §1

The target in another assay is CDK4/cyclin D1 (Homo sapiens, UniProt P11802). The assay can be described thus: Kinase assay, radioactive phosphate incorporation, CDK4/cyclin D1. In kind it is biochemical. The conditions noted are these: 100 μM ATP, 30° C.; read-out: Kinase inhibition IC50 CDK4/cyclin D1. The procedure, abridged:
as §1

Another assay has as its target CDK7/cyclin H (Homo sapiens, UniProt P50613). The assay can be described thus: Kinase assay, radioactive phosphate incorporation, CDK7/cyclin H. In kind it is biochemical. The conditions noted are these: 100 μM ATP, 30° C.; read-out: Kinase inhibition IC50 CDK7/cyclin H. The procedure, abridged:
as §1

A further assay concerns the target CDK9/cyclin T1 (Homo sapiens, UniProt P50750). The assay can be described thus: Kinase assay, radioactive phosphate incorporation, CDK9/cyclin T1. The settings on record: 100 μM ATP, 30° C.; read-out: Kinase inhibition IC50 CDK9/cyclin T1. Type of assay: biochemical. Summed up:
as §1

For a further assay, the target named is GSK3β (Homo sapiens, UniProt P49841). The assay can be described thus: Kinase assay, radioactive phosphate incorporation, GSK3β. Type of assay: biochemical. The conditions noted are these: 100 μM ATP, 30° C.; read-out: Kinase inhibition IC50 GSK3β. The procedure, abridged:
as §1

For the next assay, the target named is T1, Aurora-A (Homo sapiens, UniProt O14965).
T1 sequence (O14965 1-403): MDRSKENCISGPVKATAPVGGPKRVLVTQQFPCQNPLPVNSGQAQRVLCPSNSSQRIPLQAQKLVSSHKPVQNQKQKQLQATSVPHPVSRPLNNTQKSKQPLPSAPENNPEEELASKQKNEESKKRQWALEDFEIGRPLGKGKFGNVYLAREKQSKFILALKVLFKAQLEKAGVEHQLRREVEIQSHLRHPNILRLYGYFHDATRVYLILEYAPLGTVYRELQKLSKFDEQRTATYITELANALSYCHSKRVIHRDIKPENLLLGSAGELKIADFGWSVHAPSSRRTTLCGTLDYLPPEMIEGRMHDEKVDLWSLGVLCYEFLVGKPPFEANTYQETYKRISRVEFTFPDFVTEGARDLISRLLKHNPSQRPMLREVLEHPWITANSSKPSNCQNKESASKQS
The assay can be described thus: Kinase assay, radioactive phosphate incorporation, Aurora-A. Type of assay: biochemical. The settings on record: 100 μM ATP, 30° C.; read-out: Kinase inhibition IC50 Aurora-A. The procedure:
(§2) The compounds from the examples above were investigated for their ability to inhibit the enzymatic activity of various protein kinases. This was achieved by measurement of incorporation of radioactive phosphate from ATP into appropriate polypeptide substrates. Recombinant protein kinases and kinase complexes were produced or obtained commercially. Assays were performed using 96-well plates and appropriate assay buffers (typically 25 mM β-glycerophosphate, 20 mM MOPS, 5 MM EGTA, 1 mM DTT, 1 mM Na3VO3, pH 7.4), into which were added 2-4 μg of active enzyme with appropriate substrates. The reactions were initiated by addition of Mg/ATP mix (15 mM MgCl2+100 μM ATP with 30-50 kBq per well of [γ-^32P]-ATP) and mixtures incubated as required at 30° C. Reactions were stopped on ice, followed by filtration through p81 filterplates or GF/C filterplates (Whatman Polyfiltronics, Kent, UK). After washing 3 times with 75 mM aq orthophosphoric acid, plates were dried, scintillant added and incorporated radioactivity measured in a scintillation counter (TopCount, Packard Instruments, Pangbourne, Berks, UK). Compounds for kinase assay were made up as 10 mM stocks in DMSO and diluted into 10% DMSO in assay buffer.

A further assay concerns A549. The assay can be described thus: 72-h MTT cytotoxicity assay, A549. The settings on record: Homo sapiens, read-out: 72-h MTT IC50 A549, A549 cell line. In kind it is cell-based. Summed up:
(§3)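 Seeding by doubling time, overnight 37° C; compounds, 1/3 serial dilution, triplicate, 72 h at 37° C; PBS wash; MTT (5 mg/mL stock) 4 h dark, 37° C; DMSO solubilisation.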
In general terms: Formazan colour is commonly taken as a measure of viable cells.

In another assay the test system is HT29. The assay can be described thus: 72-h MTT cytotoxicity assay, HT29. In kind it is cell-based. The conditions noted are these: Homo sapiens, HT-29, read-out: 72-h MTT IC50 HT29, HT29 cell line. Summed up: as §3
The subject of a further assay is Saos-2. The assay can be described thus: 72-h MTT cytotoxicity assay, Saos-2. Type of assay: cell-based. The settings on record: Homo sapiens, read-out: 72-h MTT IC50 Saos-2, Saos-2 cell line. Summed up:
as §3

For assay [1], the system named is transformed human cell lines (A549, HT29, Saos-2). The assay can be described thus: 72-h MTT cytotoxicity assay, average of cell lines. In kind it is cell-based. The settings on record: read-out: 72-h MTT IC50 Average, average of A549, HT29, Saos-2. Summed up:
as §3

The target in the next assay is CDK1/cyclin B (Homo sapiens, UniProt P06493). The assay can be described thus: Kinase assay, radioactive phosphate incorporation, CDK1/cyclin B. The conditions noted are these: 100 μM ATP, 30° C.; read-out: Kinase inhibition IC50 CDK1/cyclin B. Type of assay: biochemical. The method, then: as §2

Consider 13 compounds from patent publication US20070021419A1, “2-Aminophenyl-4-phenylpyrimidines as kinase inhibitors” (Cyclacel Limited, priority 2003, published 2007).

CDK1/cyclin B, sequence (P06493 whole entry, species assumed): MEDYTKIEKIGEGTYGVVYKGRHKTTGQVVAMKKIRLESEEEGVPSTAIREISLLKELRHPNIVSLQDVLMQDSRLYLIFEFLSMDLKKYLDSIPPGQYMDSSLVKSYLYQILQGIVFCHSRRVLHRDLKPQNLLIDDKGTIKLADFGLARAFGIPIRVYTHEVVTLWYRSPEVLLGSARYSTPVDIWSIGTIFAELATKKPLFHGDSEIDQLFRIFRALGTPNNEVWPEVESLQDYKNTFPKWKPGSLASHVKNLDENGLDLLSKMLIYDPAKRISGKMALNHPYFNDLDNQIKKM
CDK1/cyclin B, sequence (P14635 whole entry partner, species assumed): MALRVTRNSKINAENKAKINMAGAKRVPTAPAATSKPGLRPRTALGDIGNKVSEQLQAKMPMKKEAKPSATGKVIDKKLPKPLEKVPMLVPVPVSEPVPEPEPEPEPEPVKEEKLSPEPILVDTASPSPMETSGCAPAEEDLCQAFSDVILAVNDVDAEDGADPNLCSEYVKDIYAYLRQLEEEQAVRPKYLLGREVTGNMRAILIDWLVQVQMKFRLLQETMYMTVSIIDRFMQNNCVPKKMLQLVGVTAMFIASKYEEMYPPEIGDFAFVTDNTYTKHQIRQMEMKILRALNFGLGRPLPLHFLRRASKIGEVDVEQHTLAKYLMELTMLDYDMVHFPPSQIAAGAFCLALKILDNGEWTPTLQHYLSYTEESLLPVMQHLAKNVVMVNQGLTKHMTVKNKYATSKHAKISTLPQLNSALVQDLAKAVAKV
GSK3β, sequence (P49841 whole entry, species assumed): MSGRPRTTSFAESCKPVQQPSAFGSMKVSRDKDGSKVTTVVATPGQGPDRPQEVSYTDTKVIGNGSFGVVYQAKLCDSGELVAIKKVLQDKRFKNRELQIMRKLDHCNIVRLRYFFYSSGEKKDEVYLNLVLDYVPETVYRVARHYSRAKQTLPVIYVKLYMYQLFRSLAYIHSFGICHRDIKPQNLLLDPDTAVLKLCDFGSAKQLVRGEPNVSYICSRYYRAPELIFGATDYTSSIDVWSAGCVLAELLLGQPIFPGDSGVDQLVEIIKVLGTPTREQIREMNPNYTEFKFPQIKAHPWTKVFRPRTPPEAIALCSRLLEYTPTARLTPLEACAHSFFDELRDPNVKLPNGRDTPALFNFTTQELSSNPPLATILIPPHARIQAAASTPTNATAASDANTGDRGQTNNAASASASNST
CDK9/cyclin T1, sequence (P50750 whole entry, species assumed): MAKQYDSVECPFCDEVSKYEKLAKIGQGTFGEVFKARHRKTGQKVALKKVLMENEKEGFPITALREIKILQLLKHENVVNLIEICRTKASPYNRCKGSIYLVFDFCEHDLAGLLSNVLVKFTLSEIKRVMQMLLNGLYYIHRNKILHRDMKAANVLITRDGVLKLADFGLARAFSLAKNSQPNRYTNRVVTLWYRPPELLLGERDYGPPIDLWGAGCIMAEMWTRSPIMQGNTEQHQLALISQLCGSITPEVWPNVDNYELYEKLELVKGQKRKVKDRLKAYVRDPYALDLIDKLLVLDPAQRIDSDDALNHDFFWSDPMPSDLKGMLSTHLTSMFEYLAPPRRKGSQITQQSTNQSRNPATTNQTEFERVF
CDK9/cyclin T1, sequence (O60563 whole entry partner, species assumed): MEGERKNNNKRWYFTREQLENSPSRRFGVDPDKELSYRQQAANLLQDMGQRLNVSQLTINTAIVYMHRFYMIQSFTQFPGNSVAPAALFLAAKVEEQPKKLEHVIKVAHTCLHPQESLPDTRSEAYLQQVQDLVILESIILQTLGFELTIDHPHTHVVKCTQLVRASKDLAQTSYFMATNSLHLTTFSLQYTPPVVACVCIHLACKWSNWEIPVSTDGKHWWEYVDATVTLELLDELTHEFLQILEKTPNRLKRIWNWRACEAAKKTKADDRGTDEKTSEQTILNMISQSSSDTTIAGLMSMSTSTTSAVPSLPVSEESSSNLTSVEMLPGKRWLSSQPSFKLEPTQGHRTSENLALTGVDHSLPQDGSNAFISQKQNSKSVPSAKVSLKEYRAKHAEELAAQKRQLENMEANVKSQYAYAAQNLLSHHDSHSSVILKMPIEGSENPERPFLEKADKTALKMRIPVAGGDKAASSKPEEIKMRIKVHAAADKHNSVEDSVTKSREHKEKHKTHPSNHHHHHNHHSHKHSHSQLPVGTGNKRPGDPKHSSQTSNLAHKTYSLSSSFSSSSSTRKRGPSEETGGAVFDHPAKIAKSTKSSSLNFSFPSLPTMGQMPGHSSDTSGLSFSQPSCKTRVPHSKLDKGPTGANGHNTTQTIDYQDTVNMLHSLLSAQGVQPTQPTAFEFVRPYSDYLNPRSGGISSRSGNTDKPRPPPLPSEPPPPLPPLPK
CDK7/cyclin H, sequence (P50613 whole entry, species assumed): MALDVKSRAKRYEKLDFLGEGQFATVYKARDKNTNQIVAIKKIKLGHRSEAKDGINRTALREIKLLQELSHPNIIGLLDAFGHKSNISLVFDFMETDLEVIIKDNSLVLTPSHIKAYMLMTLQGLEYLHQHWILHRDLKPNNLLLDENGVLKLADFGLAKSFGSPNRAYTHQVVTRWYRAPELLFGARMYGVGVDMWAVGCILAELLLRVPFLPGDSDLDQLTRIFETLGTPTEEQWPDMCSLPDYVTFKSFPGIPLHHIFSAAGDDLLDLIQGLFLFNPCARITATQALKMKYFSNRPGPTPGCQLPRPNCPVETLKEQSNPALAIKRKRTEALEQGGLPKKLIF
CDK7/cyclin H, sequence (P51946 whole entry partner, species assumed): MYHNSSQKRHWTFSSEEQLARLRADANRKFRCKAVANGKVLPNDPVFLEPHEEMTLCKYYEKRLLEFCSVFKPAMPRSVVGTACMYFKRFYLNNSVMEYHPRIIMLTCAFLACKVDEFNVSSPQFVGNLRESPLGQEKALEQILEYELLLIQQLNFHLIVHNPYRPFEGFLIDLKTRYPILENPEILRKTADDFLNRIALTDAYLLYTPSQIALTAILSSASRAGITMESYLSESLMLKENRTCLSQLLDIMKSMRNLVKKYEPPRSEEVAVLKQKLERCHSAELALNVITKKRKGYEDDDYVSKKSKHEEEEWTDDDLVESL
CDK4/cyclin D1, sequence (P11802 whole entry, species assumed): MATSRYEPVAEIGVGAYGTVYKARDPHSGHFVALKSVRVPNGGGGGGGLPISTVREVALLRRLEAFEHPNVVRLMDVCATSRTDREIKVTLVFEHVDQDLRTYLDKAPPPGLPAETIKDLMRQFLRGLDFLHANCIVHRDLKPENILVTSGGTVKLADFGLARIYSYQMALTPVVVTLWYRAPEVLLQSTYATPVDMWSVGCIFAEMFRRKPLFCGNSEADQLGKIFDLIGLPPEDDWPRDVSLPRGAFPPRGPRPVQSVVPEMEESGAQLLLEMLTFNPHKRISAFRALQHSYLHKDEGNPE
CDK4/cyclin D1, sequence (P24385 whole entry partner, species assumed): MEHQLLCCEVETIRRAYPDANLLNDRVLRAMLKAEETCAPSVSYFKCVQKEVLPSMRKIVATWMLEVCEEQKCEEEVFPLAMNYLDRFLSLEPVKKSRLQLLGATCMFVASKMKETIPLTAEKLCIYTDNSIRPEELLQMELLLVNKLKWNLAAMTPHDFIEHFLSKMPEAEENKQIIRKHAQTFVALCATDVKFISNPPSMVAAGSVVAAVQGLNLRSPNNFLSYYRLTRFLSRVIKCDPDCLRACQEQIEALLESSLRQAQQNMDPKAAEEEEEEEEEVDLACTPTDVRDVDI

Turning to `CCN(Cc1cccc(-c2ccnc(Nc3cccc([N+](=O)[O-])c3)n2)c1)C(C)C` [Compound 46, (4-{3-[(Ethyl-isopropyl-amino)-methyl]-phenyl}-pyrimidin-2-yl)-(3-nitro-phenyl)-amine], the IC50 at CDK2/cyclin A is 480 nM; at CDK2/cyclin E, 170 nM; on CDK4/cyclin D1 it was 1400 nM; on CDK7/cyclin H, 130 nM; on CDK9/cyclin T1 it was 2 nM; at GSK3β it was 100 nM. Moreover, the IC50 worked out at 30 nM at Aurora-A; 960 nM in the assay on A549; 530 nM with HT29; 1100 nM in the assay with Saos-2; 900 ± 300 nM in [1].

In the case of `OCc1cccc(Nc2nccc(-c3cccc(O)c3)n2)c1` [Compound 72, 3-[2-(3-Hydroxymethyl-phenylamino)-pyrimidin-4-yl]-phenol], the IC50 amounted to 150 nM at CDK1/cyclin B; 150 nM on CDK2/cyclin A; 120 nM on CDK2/cyclin E; 280 nM at CDK4/cyclin D1; 1700 nM on CDK7/cyclin H; 30 nM on GSK3β. Moreover, on Aurora-A, the IC50 amounted to 40 nM.

With `COc1ccc(-c2ccnc(Nc3cccc(O)c3)n2)cc1` [Compound 76, 3-[4-(4-Methoxy-phenyl)-pyrimidin-2-ylamino]-phenol], the IC50 at CDK1/cyclin B is 1 nM; on CDK2/cyclin A, below 1 nM; at CDK2/cyclin E it was 10 nM; on CDK4/cyclin D1, 10 nM; on CDK7/cyclin H, 120 nM; at CDK9/cyclin T1, below 1 nM. The IC50 at GSK3β was found to be 10 nM; on Aurora-A, 50 nM.

Regarding `CN(C)Cc1cccc(-c2ccnc(Nc3cccc(O)c3)n2)c1` [Compound 80, 3-[4-(3-Dimethylaminomethyl-phenyl)-pyrimidin-2-ylamino]-phenol], the IC50 at CDK1/cyclin B stood at 690 nM; on CDK2/cyclin A it was 590 nM; at CDK2/cyclin E, 70 nM; on CDK7/cyclin H it was 720 nM; on CDK9/cyclin T1, 10 nM; on GSK3β it was 830 nM. Also, the IC50 on Aurora-A came out at 1500 nM; with A549, 860 nM; in the assay with HT29 it was 1600 nM; with Saos-2 it was 4000 nM; in assay [1], 2200 ± 1600 nM.

For `CN(C)Cc1cccc(-c2ccnc(Nc3ccc(O)cc3)n2)c1` [Compound 81, 4-[4-(3-Dimethylaminomethyl-phenyl)-pyrimidin-2-ylamino]-phenol], the IC50 turned out to be 1300 nM on CDK1/cyclin B; 500 nM at CDK2/cyclin A; 110 nM on CDK2/cyclin E; 1400 nM at CDK7/cyclin H; 20 nM on CDK9/cyclin T1; 1300 nM at GSK3β. The IC50 at Aurora-A came out at 1000 nM; in the assay on A549, 1500 nM; in the assay on HT29, 1200 nM; in the assay on Saos-2 it was 5000 nM; in [1] it was 2600 ± 2100 nM.

With `COc1ccc(Nc2nccc(-c3cccc(CN(C)C)c3)n2)cn1` [Compound 83, [4-(3-Dimethylaminomethyl-phenyl)-pyrimidin-2-yl]-(6-methoxy-pyridin-3-yl)-amine], the IC50 on CDK1/cyclin B came out at 380 nM; at CDK2/cyclin A, 650 nM; at CDK2/cyclin E, 190 nM; at CDK7/cyclin H, 990 nM; at CDK9/cyclin T1 it was 20 nM; at GSK3β, 150 nM. For the same compound, the IC50 at Aurora-A was found to be 7800 nM; in the assay with A549, 1400 nM; in the assay on HT29 it was 910 nM; in the assay with Saos-2, 1600 nM; in assay [1], 1300 ± 400 nM.

`CCN(CC)Cc1cccc(-c2ccnc(Nc3cccc([N+](=O)[O-])c3)n2)c1` [Compound 84, [4-(3-Diethylaminomethyl-phenyl)-pyrimidin-2-yl]-(3-nitro-phenyl)-amine]: the IC50 at CDK1/cyclin B came out at 20 nM; at CDK2/cyclin A, 20 nM; at CDK2/cyclin E, 60 nM; on CDK4/cyclin D1, 3200 nM; on CDK7/cyclin H it was 90 nM; on CDK9/cyclin T1, 4 nM. In addition, the IC50 at GSK3β was 20 nM; on Aurora-A, 570 nM.

Turning to `COc1cccc(-c2ccnc(Nc3cccc(O)c3)n2)c1` [Compound 88, 3-[4-(3-Methoxy-phenyl)-pyrimidin-2-ylamino]-phenol], the IC50 at CDK1/cyclin B is 570 nM; at CDK2/cyclin A, 1400 nM; on CDK2/cyclin E it was 100 nM; on CDK4/cyclin D1, 200 nM; at CDK9/cyclin T1, 5 nM; on GSK3β it was 80 nM. Moreover, the IC50 on Aurora-A was 20 nM.

For the compound `O=[N+]([O-])c1cccc(Nc2nccc(-c3cccc(CO)c3)n2)c1` [Compound 91, {3-[2-(3-Nitro-phenylamino)-pyrimidin-4-yl]-phenyl}-methanol], the IC50 at CDK1/cyclin B was found to be 590 nM; on CDK2/cyclin A it was 470 nM; on CDK2/cyclin E, 60 nM; at CDK4/cyclin D1, 870 nM; on CDK7/cyclin H, 550 nM; on CDK9/cyclin T1 it was 0.1 nM. Also, the IC50 at GSK3β was determined as 0.7 nM; on Aurora-A it was 160 nM.

For the compound `N#Cc1cccc(-c2ccnc(Nc3cccc(O)c3)n2)c1` [Compound 92, 3-[2-(3-Hydroxy-phenylamino)-pyrimidin-4-yl]-benzonitrile], the IC50 on CDK1/cyclin B came out at 2100 nM; on CDK4/cyclin D1, 1400 nM; at CDK9/cyclin T1, 110 nM; on GSK3β, 80 nM; on Aurora-A it was 940 nM.

With `N#Cc1cccc(-c2ccnc(Nc3ccc(O)cc3)n2)c1` [Compound 93, 3-[2-(4-Hydroxy-phenylamino)-pyrimidin-4-yl]-benzonitrile], the IC50 amounted to 3100 nM on CDK1/cyclin B, 2500 nM on CDK4/cyclin D1 and 1000 nM on Aurora-A.

Regarding `COc1cccc(-c2ccnc(Nc3ccc(O)cc3)n2)c1` [Compound 98, 4-[4-(3-Methoxy-phenyl)-pyrimidin-2-ylamino]-phenol], the IC50 worked out at 1100 nM at CDK1/cyclin B; 1400 nM at CDK2/cyclin A; 130 nM on CDK2/cyclin E; 590 nM at CDK4/cyclin D1; 6 nM on CDK9/cyclin T1; 350 nM at GSK3β. Also, at Aurora-A, the IC50 is 640 nM.

In the case of `COc1ccc(-c2ccnc(Nc3ccc(O)cc3)n2)cc1` [Compound 110, 4-[4-(4-Methoxy-phenyl)-pyrimidin-2-ylamino]-phenol], the IC50 on CDK1/cyclin B stood at 500 nM; at CDK2/cyclin A, 80 nM; on CDK2/cyclin E, 120 nM; on CDK4/cyclin D1, 1300 nM; on CDK7/cyclin H it was 1500 nM; on CDK9/cyclin T1 it was 20 nM. Further, at Aurora-A, the IC50 was found to be 400 nM.
